Reference: US20250170140A1, “PHARMACEUTICAL COMPOSITION FOR PREVENTING OR TREATING CANCER COMPRISING CARNITINE ACYLCARNITINE CARRIER INHIBITOR AND PEROXISOMAL BETA OXIDATION INHIBITOR” (priority 2021, published 2025)

Key:
Assay type in all cases: cell-based
OVCAR-8 cells = test: SRB assay, ovarian cancer cells OVCAR-8
Method: (§1) As a comparison, omeprazole (KN510) and trimetazidine (KN713), a 3-ketoacyl CoA thiolase inhibitor, were co-treated. […] After cell inoculation, 96-well cell culture plates were incubated for 24 hours before the addition of experimental drugs. […] The cells were then incubated in a CO2 incubator for 48 hours, after which the assay was terminated by the addition of cold TCA. Cells were fixed in situ by gently adding 50 μl of cold 50% (w/v) TCA (final concentration: 10% TCA) and incubated at 4° C. for 60 min. The supernatant was discarded, and the plate was washed five times with distilled water and air dried. Sulforhodamine B (SRB) solution (100 μl) of 0.4% (w/v) in 1% acetic acid was added to each well, and the plate was left at room temperature for 10 min. After staining, unbound dye was removed by washing five times with 1% acetic acid, and the plate was air-dried. The bound dye was then solubilized with 10 mM trizma base, and the absorbance was recorded at 515 nm using an automated plate reader. […] The predicted synergistic activity of a combination of the present invention can be calculated using the Colby Equation in Equation 1 (S.R. Colby, Weeds, 1967, pp. 15, 20-22): In the present invention, the actual measure of anti-cancer activity of the combination treatment was the inhibition rate of cancer cell growth (%), and the predicted value (E) of the combination treatment was measured by substituting it into the above Colby Equation.

PC-3 cells = test: SRB assay, prostate cancer cells PC-3
Method: as §1

DLD-1 cells = test: SRB assay, colon cancer cell line DLD-1
Method: as §1

SK-MEL-5 = test: SRB assay, melanoma cell line SK-MEL-5
Method: as §1

MKN-28 cells = test: SRB assay, stomach cancer cell line MKN-28
Method: as §1

CAKI-1 cells = test: SRB assay, renal cell carcinoma cell line CAKI-1
Method: as §1

Hep-3B cells = test: SRB assay, liver cancer cell line Hep-3B
Method: as §1

SK-OV-3 cells = test: SRB assay, ovarian cancer cells SK-OV-3
Method: as §1

PANC-1 cells = test: SRB assay, pancreatic cancer cell line PANC-1
Method: as §1

[1] = Homo sapiens, KN510 100 μM, read-out: Inhibition rate of cancer cell growth (%) (Actual value)
[2] = Homo sapiens, KN510 200 μM, read-out: Inhibition rate of cancer cell growth (%) (Actual value)
[3] = Homo sapiens, KN714 5 μM, read-out: Inhibition rate of cancer cell growth (%) (Actual value)
[4] = Homo sapiens, KN714 10 μM, read-out: Inhibition rate of cancer cell growth (%) (Actual value)

`COc1ccc2[nH]c([S+]([O-])Cc3ncc(C)c(OC)c3C)nc2c1` (stereo not drawn) [KN510, omeprazole] was tested, and the inhibition at 100 µM (OVCAR-8 cells; [1]) was 44.5%, the inhibition at 200 µM (OVCAR-8 cells; [2]) was 63.3% and the “Cancer cell growth rate Average (%)” value (OVCAR-8 cells; KN510 100 μM) was 55.49%. For the same compound, the “Cancer cell growth rate Average (%)” value (OVCAR-8 cells; KN510 200 μM) was 36.66%, the inhibition at 100 µM (PC-3 cells; [1]) was 46.6% and the inhibition at 200 µM (PC-3 cells; [2]) was 66.2%. For the same compound, the “Cancer cell growth rate Average (%)” value (PC-3 cells; KN510 100 μM) was 53.42%, the “Cancer cell growth rate Average (%)” value (PC-3 cells; KN510 200 μM) was 33.81% and the inhibition at 100 µM (DLD-1 cells; [1]) was 26.1%. The inhibition at 200 µM (DLD-1 cells; [2]) was 63.2%, the “Cancer cell growth rate Average (%)” value (DLD-1 cells; KN510 100 μM) was 73.90% and the “Cancer cell growth rate Average (%)” value (DLD-1 cells; KN510 200 μM) was 36.78%. The inhibition at 100 µM (SK-MEL-5; [1]) was 34.6%, the inhibition at 200 µM (SK-MEL-5; [2]) was 53.9% and the “Cancer cell growth rate Average (%)” value (SK-MEL-5; KN510 100 μM) was 65.42%. The “Cancer cell growth rate Average (%)” value (SK-MEL-5; KN510 200 μM) was 46.11%, the inhibition at 100 µM (MKN-28 cells; [1]) was 50.2% and the inhibition at 200 µM (MKN-28 cells; [2]) was 74.8%. The “Cancer cell growth rate Average (%)” value (MKN-28 cells; KN510 100 μM) was 49.80%, the “Cancer cell growth rate Average (%)” value (MKN-28 cells; KN510 200 μM) was 25.20% and the inhibition at 100 µM (CAKI-1 cells; [1]) was 32%. For the same compound, the inhibition at 200 µM (CAKI-1 cells; [2]) was 72.9%, the “Cancer cell growth rate Average (%)” value (CAKI-1 cells; KN510 100 μM) was 67.99% and the “Cancer cell growth rate Average (%)” value (CAKI-1 cells; KN510 200 μM) was 27.11%. For the same compound, the inhibition at 100 µM (Hep-3B cells; Homo sapiens, Hep3B, KN510 100 μM, read-out: Inhibition rate of cancer cell growth (%) (Actual value)) was 15.1%, the inhibition at 200 µM (Hep-3B cells; Homo sapiens, Hep3B, KN510 200 μM, read-out: Inhibition rate of cancer cell growth (%) (Actual value)) was 40.1% and the “Cancer cell growth rate Average (%)” value (Hep-3B cells; KN510 100 μM) was 84.95%. For the same compound, the “Cancer cell growth rate Average (%)” value (Hep-3B cells; KN510 200 μM) was 59.89%, the inhibition at 100 µM (SK-OV-3 cells; [1]) was 11.5% and the inhibition at 200 µM (SK-OV-3 cells; [2]) was 59.8%. For the same compound, the “Cancer cell growth rate Average (%)” value (SK-OV-3 cells; KN510 100 μM) was 88.53%, the “Cancer cell growth rate Average (%)” value (SK-OV-3 cells; KN510 200 μM) was 40.18% and the inhibition at 100 µM (PANC-1 cells; [1]) was 55.5%. For the same compound, the inhibition at 200 µM (PANC-1 cells; [2]) was 89%, the “Cancer cell growth rate Average (%)” value (PANC-1 cells; KN510 100 μM) was 44.47% and the “Cancer cell growth rate Average (%)” value (PANC-1 cells; KN510 200 μM) was 10.96%.

For `CSc1ccc2c(c1)N(CCC1CCCCN1C)c1ccccc1S2` (stereo not drawn) [KN714, 10-[2-(1-methyl-2-piperidyl)ethyl]-2-(methylthio)phenothiazine], the inhibition at 5 µM (OVCAR-8 cells; [3]) was 6.92%, the inhibition at 10 µM (OVCAR-8 cells; [4]) was 55.1% and the “Cancer cell growth rate Average (%)” value (OVCAR-8 cells; KN714 5 μM) was 93.08%. The “Cancer cell growth rate Average (%)” value (OVCAR-8 cells; KN714 10 μM) was 44.89%, the inhibition at 5 µM (PC-3 cells; [3]) was 18.1% and the inhibition at 10 µM (PC-3 cells; [4]) was 53%. The “Cancer cell growth rate Average (%)” value (PC-3 cells; KN714 5 μM) was 81.94%, the “Cancer cell growth rate Average (%)” value (PC-3 cells; KN714 10 μM) was 47.00% and the inhibition at 5 µM (DLD-1 cells; [3]) was 8.66%. The inhibition at 10 µM (DLD-1 cells; [4]) was 13.1%, the “Cancer cell growth rate Average (%)” value (DLD-1 cells; KN714 5 μM) was 91.34% and the “Cancer cell growth rate Average (%)” value (DLD-1 cells; KN714 10 μM) was 86.87%. For the same compound, the inhibition at 5 µM (SK-MEL-5; [3]) was 19.3%, the inhibition at 10 µM (SK-MEL-5; [4]) was 124% and the “Cancer cell growth rate Average (%)” value (SK-MEL-5; KN714 5 μM) was 80.69%. For the same compound, the “Cancer cell growth rate Average (%)” value (SK-MEL-5; KN714 10 μM) was −23.56%, the inhibition at 5 µM (MKN-28 cells; [3]) was 8.19% and the inhibition at 10 µM (MKN-28 cells; [4]) was 64%. For the same compound, the “Cancer cell growth rate Average (%)” value (MKN-28 cells; KN714 5 μM) was 91.81%, the “Cancer cell growth rate Average (%)” value (MKN-28 cells; KN714 10 μM) was 36.04% and the inhibition at 5 µM (CAKI-1 cells; [3]) was 24%. The inhibition at 10 µM (CAKI-1 cells; [4]) was 49.4%, the “Cancer cell growth rate Average (%)” value (CAKI-1 cells; KN714 5 μM) was 75.99% and the “Cancer cell growth rate Average (%)” value (CAKI-1 cells; KN714 10 μM) was 50.59%. The inhibition at 5 µM (Hep-3B cells; Homo sapiens, Hep3B, KN714 5 μM, read-out: Inhibition rate of cancer cell growth (%) (Actual value)) was 6.06%, the inhibition at 10 µM (Hep-3B cells; Homo sapiens, Hep3B, KN714 10 μM, read-out: Inhibition rate of cancer cell growth (%) (Actual value)) was 29.9% and the “Cancer cell growth rate Average (%)” value (Hep-3B cells; KN714 5 μM) was 93.94%. The “Cancer cell growth rate Average (%)” value (Hep-3B cells; KN714 10 μM) was 70.15%, the inhibition at 5 µM (SK-OV-3 cells; [3]) was 7.82% and the inhibition at 10 µM (SK-OV-3 cells; [4]) was 37.6%. For the same compound, the “Cancer cell growth rate Average (%)” value (SK-OV-3 cells; KN714 5 μM) was 92.18%, the “Cancer cell growth rate Average (%)” value (SK-OV-3 cells; KN714 10 μM) was 62.36% and the inhibition at 5 µM (PANC-1 cells; [3]) was 10.2%. The inhibition at 10 µM (PANC-1 cells; [4]) was 70%, the “Cancer cell growth rate Average (%)” value (PANC-1 cells; KN714 5 μM) was 89.85% and the “Cancer cell growth rate Average (%)” value (PANC-1 cells; KN714 10 μM) was 30.04%.
